pEC50: −log10 of the molar value. Entries after “also recorded” stand apart in the source; their conditions may differ. Like-named read-outs stand apart in the source and are kept apart here.
Tests used:
[1] = test system: GFP-K18 R90C lentivirus-transduced A549 cells; test: Keratin dots-to-filaments assay (high-throughput screen and validation); format: cell-based, human; details: 5 μM, 48 h
Description: The screening strategy was performed as described. In brief, human A549 lung adenocarcinoma cells (American Type Culture Collection) were seeded into six-well plates overnight and then transduced with K8 WT and either the GFP-tagged K18 WT or GFP-tagged K18 R90C lentivirus for 2d. A549 cells were selected for the screening assay because of their high transduction efficiency and readily visualized keratin filaments. The transduced cells were seeded into 384-well plates for 1d followed by addition of compounds from the Navigator Pathways (Center for Chemical Genomics, University of Michigan). After 48 h, cells were fixed counterstained with 4′,6-diamidino-2-phenylindole (DAPI; Invitrogen). Images were taken with the Image Xpress Micro XLS High Content Imaging System then analyzed using MetaXpress software (Molecular Devices). Compounds that decrease the number of keratin dots/cell and promote keratin filament formation were selected for secondary validation. 945 compounds from the Navigator Pathways library were screened. The library consists of several daughter sets that cover a range of pathways including Autophagy, Wnt, Epigenetics, Protein Kinases, Proteases, Redox, Cannabinoids, and Natural Products.

[2] = test system: GFP-K18 R90C transduced A549 cells; test: IFN-γ/FasL-induced apoptosis in cultured cells; format: cell-based, human
Description: (§1) A549 cells were cultured using Ham's F-12K medium (Thermo Fisher Scientific) supplemented with 10% fetal bovine serum (Sigma Aldrich) and 1% penicillin and 10,000 U/mL streptomycin (Life Technologies).

[3] = test system: K18 and K8; test: K8/K18 phosphorylation by mass spectrometry and immunoblot; format: cell-based, human
Description: Cell and liver samples were solubilized using a Dounce homogenizer in 2% SDS-containing PBS supplemented with protease inhibitor (Thermo Fisher Scientific), then sonicated 80× (is pulse, intensity 70) (Fisher Scientific; Model: FB50). Lysates were pelleted (16,000 g×10 min/20° C.) and the supernatant was used for subsequent analysis. Equal amounts of protein were separated by SDS-polyacrylamide gel electrophoresis (PAGE) then transferred to polyvinylidene fluoride membranes (Bio-Rad) followed by immunoblotting. For immunoprecipitation, K18 R90C-transduced A549 cells were homogenized in PBS containing 1% Nonidet P-40 (NP40), protease inhibitors, and okadaic acid (Cayman Chemical; 1 μg/mL). […] For mass spectrometry, conjugated beads were suspended in PBS-buffered 8M urea to yield ˜6 g (in 60 μl urea-containing buffer). Samples were separated SDS-PAGE, followed by in-gel tryptic digestion then LC-MS/MS analysis. Peptides were identified by the Mass Spectrometry Facility at Rutgers University.

[4] = test system: K18 R90C mice; test: Fas-induced liver injury; format: in vivo, mouse; details: for hepatocyte keratin filament organization: PP2 1 mg/kg ip daily 4d; for increase in serum alanine aminotransferase (ALT) level after Fas treatment: single 1× pretreatment (PKC412 25 mg/kg, PP2 1 mg/kg, Vem 1 mg/kg), Fas antibody 0.25 μg/g
Description: (§3) All mouse experiments were performed using a protocol approved by Rutgers University Institutional Animal Care and Use Committee. Previously described 4-6 weeks-old F22 male and female mice that express the human K18 R90C mutant (FVB/N background) were used. […] For immunofluorescence experiments, mouse livers were collected after CO2 euthanasia and embedded in optimum-cutting-temperature compound then stored (−80° C.). For Fas experiments, mice were treated by intraperitoneal administration of Fas antibody (0.15 μg/g body weight; BD Pharmingen). After 5 h, mice were sacrificed followed by collection of blood and liver. Livers were fixed with 10% formalin and analyzed by hematoxylin-eosin (H&E) staining or TUNEL assay. A hemorrhage score was calculated using QuPath (Quantitative Pathology & Bioimage Analysis) and ImageJ software. Apoptosis was estimated using TUNEL assay detection kit (ApopTag Peroxidase In Situ Apoptosis; Sigma Aldrich). Fluorescence images were acquired with the same exposure time and used to count the apoptotic nuclei. Serum alanine aminotransferase (ALT) levels were determined using the Liquid ALT Reagent Set (Pointe Scientific). For the acetaminophen (APAP) experiments, the liver histopathology score was determined using a 0-4 scoring system. Scoring was conducted by two scorers blinded to treatment conditions, and the average score was used.

[5] = PP2 content in liver and serum by UPLC-UV; format: in vivo, mouse
Description: Mice were sacrificed and livers were harvested at the indicated times. […] The column was washed once with 1 mL 100% methanol and eluted with 1 mL 5% NH4OH in methanol. […] The evaporated sample was resuspended in […] injection solvent [80% (5% ammonium hydroxide in methanol)+20% (10 mM ammonium formate+0.1% formic acid)], and […] was injected for ultra-performance liquid chromatography (UPLC). […] The supernatant was transferred to new tubes then processed further for SPE and UPLC exactly as carried out for the liver tissue extracts.
A Waters ACQUITY UPLC system equipped with Empower software and H-Class PLUS (CH-A) Core was used. […] The column was eluted at flow rate of 0.5 ml/min with linear gradients of solvents A and B (A, 10 mM ammonium formate, 0.1% formic acid in water; B, 0.1% formic acid in methanol).

[6] = test system: A549 cells; details: PP2 10 μM, A549 cells expressing K18 R90C
Description: as §1

[7] = test system: K18 R90C mice
Description: as §3

[8] = K18 R90C mice, PP2 1 mg/kg intraperitoneally daily for 4d, female and male
Description: as §3

[9] = test system: K14.R125C keratinocytes; test: Keratin aggregates by K5 immunofluorescence microscopy; format: cell-based, human; details: 0.8 μM PKC412, 24 h; DMSO-treated cells mean=56%
Description: Skin samples were obtained for diagnostic purposes. After written informed consent, primary keratinocytes were isolated from the remaining tissue. […] Keratinocytes were grown in low calcium Gibco™ Keratinocyte-SFM Medium supplemented with L-glutamine, EGF and BPE (LCM, Thermo Fisher Scientific) and cultured at 37° C., 5% CO2 and 90% humidity. To induce cell-cell contacts, LCM was changed to high calcium medium (HCM, 1.2 mM CaCl2) and cells were incubated for 24 h.

[10] = test system: K14.R125C keratinocytes; test: Epithelial sheet assay (dispase assay); format: cell-based, human; details: 1 μM, high calcium medium, 24 h, vs vehicle-treated monolayers
Description: (§2) Prior to the assay, cells were washed twice with 1.2 mM Ca^2+ PBS and incubated for 30 min at 37° C. with Dispase II (Roche Diagnostics, 9 mg/ml in 1:2 HEPES buffer:keratinocytes medium, 2 mM Ca^2+). Free-floating cell sheets were transferred to a 15 ml Falcon tube containing 5 ml 1.2 mM Ca^2+ PBS and subjected to 25 rpm overhead rotation (WiseMix overhead rotator, Witeg Labortechnik, Germany) for 1 min at room temperature. Image acquisition was done using Nikon SMZ 1500 binocular and image processing by ImageJ.

[11] = test system: K14.R125G keratinocytes; test: Epithelial sheet assay (dispase assay); format: cell-based, human; details: 1 μM, high calcium medium, 24 h
Description: as §2

[12] = test system: normal human keratinocytes (NHK); test: Electrochemical impedance spectroscopy on multielectrode arrays; format: cell-based; details: 24 h treatment; read-out: EC50 (impedance concentration response curve)
Source text: Skin samples were obtained for diagnostic purposes. After written informed consent, primary keratinocytes were isolated from the remaining tissue. Immortalized human control (NHK, normal human keratinocytes) and EBS keratinocytes (K14.R125C, K14.R125G, K14.N123S, K14.Y415H, K5.G138E/L175F and K5.E477D) were generated (Has et al. (2018) The Position of Targeted Next-generation Sequencing in Epidermolysis Bullosa Diagnosis. Acta Dermato-Venereologica 98:437-40; He Y, Maier K, Leppert J, Hausser I, Schwieger-Briel A, Weibel L, et al. (2016) Monoallelic Mutations in the Translation Initiation Codon of KLHL24 Cause Skin Fragility. Am J Hum Genet 99:1395-404). Keratinocytes were grown in low calcium Gibco™ Keratinocyte-SFM Medium supplemented with L-glutamine, EGF and BPE (LCM, Thermo Fisher Scientific) and cultured at 37° C., 5% CO2 and 90% humidity. […]
Impedimetric measurements on NHK and K14.R125C keratinocytes were performed as previously described. […] Impedance spectra (500 Hz-5 MHz) were automatically recorded every 30 min using the impedance measurement platform based on an Agilent 4294A high-precision impedance analyzer (Agilent Technologies) and the self-developed controlling software IMAT advanced. […] The cell signal (relative impedance) was determined with the self-developed analysis software IDAT v3.7.2.

[13] = test system: RXXpS/pT AGC-kinase motif, P-K17 S44, P-DSP S165/S166, P-DSP S2849; test: Immunoblot with phospho-epitope specific antibodies; format: cell-based, human
Source text: Skin samples were obtained for diagnostic purposes. After written informed consent, primary keratinocytes were isolated from the remaining tissue. Immortalized human control (NHK, normal human keratinocytes) and EBS keratinocytes (K14.R125C, K14.R125G, K14.N123S, K14.Y415H, K5.G138E/L175F and K5.E477D) were generated (Has et al. (2018) The Position of Targeted Next-generation Sequencing in Epidermolysis Bullosa Diagnosis. Acta Dermato-Venereologica 98:437-40; He Y, Maier K, Leppert J, Hausser I, Schwieger-Briel A, Weibel L, et al. (2016) Monoallelic Mutations in the Translation Initiation Codon of KLHL24 Cause Skin Fragility. Am J Hum Genet 99:1395-404). Keratinocytes were grown in low calcium Gibco™ Keratinocyte-SFM Medium supplemented with L-glutamine, EGF and BPE (LCM, Thermo Fisher Scientific) and cultured at 37° C., 5% CO2 and 90% humidity. To induce cell-cell contacts, LCM was changed to high calcium medium (HCM, 1.2 mM CaCl2) and cells were incubated for 24 h.
To separate proteins under denaturing conditions, sodium dodecyl sulfate polyacrylamide gel electrophoresis (SDS-PAGE) was performed. Proteins were transferred to nitrocellulose membranes (VWR) using a semi-dry blotter (Armin Baack Labortechnik). Membranes were blocked using 3% (w/v) skim milk/TBS with Tween (TBST) or 3% (w/v) bovine serum albumin (BSA)/TBST and subsequently probed with the appropriate antibodies. Chemiluminescence was detected using ChemoCam Imager (Intas). Band intensity was quantified using ImageJ software.

[14] = test system: desmoplakin (DSP); test: Desmoplakin localization by immunofluorescence microscopy; format: cell-based, human; details: 1.2 mM CaCl2, vs vehicle-treated cells
Description: Human keratinocytes grown on coverslips were fixed for 5 min in methanol (−20° C.) and 30 sec in acetone (−20° C.). Primary antibodies were diluted in 1% (w/v) BSA in TBS and incubated overnight at 4° C. in a humid chamber. The next day, coverslips were washed in TBS and incubated with the fluorophore-conjugated secondary antibody for 30 min at RT in the dark. DNA was stained with DAPI. Finally, coverslips were washed three times in TBS, rinsed briefly in aqua bidest and mounted with ProLong® Gold antifade reagent (Invitrogen). Images or Z-stacks were acquired with a confocal LSM 780 (Carl Zeiss) equipped with 40×/1.3 NA or 63×/1.4 NA oil immersion objectives and an AxioCam Mrm (Carl Zeiss). Image analysis and maximum intensity projections of Z-stacks was performed using Zen 2012 Blue software (Carl Zeiss). ImageJ was used for image processing.

[15] = test system: K18 and K8; details: based on prior studies; cited from earlier work
[16] = healthy volunteers, single oral dose (50 mg) as microemulsion; cited from earlier work
[17] = K18 R90C-expressing A549 cells, mass spectrometry, PP2 vs DMSO
[18] = female mice, PP2 1 mg/kg ip 4d, Fas antibody 0.15 μg/g 5 h
[19] = male mice, PP2 1 mg/kg ip 4d, Fas antibody 0.15 μg/g 5 h
[20] = PKC412 25 mg/kg ip daily 4d, male and female, Fas challenge

Molecule: CC(C)(C)n1nc(-c2ccc(Cl)cc2)c2c(N)ncnc21 [PP2, 1-tert-butyl-3-(4-chlorophenyl)-1H-pyrazolo[3,4-d]pyrimidin-4-amine]
- percentage of cells with keratin mutant aggregates [1]: significantly decreased
- induction of apoptosis under basal non-Fas condition (TUNEL) ([2]; 5 μM, no Fas challenge): does not induce apoptosis
- cleaved caspases 3 and 7 ([2]; PP2 5 μM 48 h then IFN-γ and FasL): decreased presence
- TUNEL-positive cells ([2]; PP2 5 μM 48 h then IFN-γ and FasL, without PP2 37%): 8%
- okadaic acid-induced hyperphosphorylation of K18/K8 ([3]; A549 cells, PP2 5 μM 48 h, okadaic acid 1 μg/mL): reversed
- decrease of global phosphorylation of K8 [3, 17]: 38%
- decrease of global phosphorylation of K18 [3, 17]: 43%
- K18 S34 and K8 S432 phosphorylation ([3]; immunoblot, PP2 5 μM 48 h): significant decrease
- liver TUNEL-positive cells ([4]; PP2 1 mg/kg ip 4d, Fas challenge): fewer TUNEL-positive cells
- SRC phosphorylation at stimulatory phospho-site Y416 in liver ([4]; female livers): not female
- hepatocyte keratin filament organization ([4]; female livers): not female
- ALT levels [4, 18]: not female
- parenchymal liver hemorrhage [4, 18]: not female
- SRC phosphorylation at stimulatory phospho-site Y416 in liver ([4]; male livers): decreased
- hepatocyte keratin filament organization ([4]; male livers): normalized keratin filaments
- ALT levels [4, 19]: improved
- parenchymal liver hemorrhage [4, 19]: improved
- increase in serum alanine aminotransferase (ALT) level after Fas treatment ([4]; male mice): significantly reduced
- PP2 in serum ([5]; 1 mg/kg, 1 h after administration): no detectable PP2
- PP2 in liver ([5]; after 4 h, male or female mice): no detectable PP2
- PP2 levels in male mouse liver compared to female mouse liver ([5]; as a function of time): significantly higher
- PP2 in liver ([5]; male and female FVB/N mice, 1 mg/kg, 1 h after administration): detected
- tolerability in cells [6]: not well tolerated
- tested necrosis markers ([7]; PP2 vs vehicle): no significant difference
- histologic protection ([7]; male compared with female PP2-treated mice): significant histologic protection
- body or liver weight [8]: does not have an effect; also recorded: no significant effect

Molecule: 4′-N-benzoylstaurosporine [PKC412]
- keratin aggregate-containing cells (mean) [9]: 13%
- epithelial monolayer integrity after rotation [10]: remained fully intact
- fragility of mutant epithelial sheets [11]: rescued fragility
- pEC50 [12]: 7.08
- phosphorylation at AGC-kinase motif RXXpS/pT ([13]; EBS K14.R125C cells vs vehicle-treated): significant reduction in phosphorylation
- K17 phosphorylation at P-S44 ([13]; NHK and K14.R125C cells vs vehicle): significantly reduced
- DSP phosphorylation at S165 and S166 ([13]; vs DMSO-treated cells): significantly reduced
- DSP phosphorylation at S2849 ([13]; vs DMSO-treated cells): significantly reduced
- DSP at sites of cell-cell contacts [14]: significant increase
- protection from Fas-induced liver injury, male versus female ([4]; PKC412 25 mg/kg ip daily 4d, Fas antibody 0.15 μg/g 5 h): equally protects both sexes
- ALT levels [4, 20]: significantly reduced
- extent of hemorrhage [4, 20]: significantly reduced
- increase in serum alanine aminotransferase (ALT) level after Fas treatment ([4]; male mice): significantly reduced
- K18 S34 and K8 S432 phosphorylation [15]: no effect
- tolerability, single oral dose [16]: well tolerated

From patent US20250387404A1, “FORMULATIONS AND METHODS FOR TREATING EPIDERMOLYSIS BULLOSA SIMPLEX AND RELATED CONDITIONS” (RUTGERS, THE STATE UNIVERSITY OF NEW JERSEY, priority 2022, published 2025)
